According to patent US20260263628A1, “AN ORAL LIQUID COMPOSITION OF VINORELBINE” (INSTITUT GUSTAVE ROUSSY, priority 2022, published 2026):
Where a name gives a salt, the structure may show the parent alone. Read-outs that look alike come from different tables or passages of the source.

Columns and labels:
[1] = Isothermal titration calorimetry of CD/vinorelbine systems (titration and competition with SGM); assay type: physicochemical; conditions: 25° C.; for Binding constant / ΔbH° (inclusion enthalpy): vinorelbine-CD, phosphate buffer pH 7.0
Protocol: In the first instance, 12 CDs and CD derivatives supplied by Captisol® (Kansas, USA), SIGMA® (St Louis, Missouri, USA) and MSD® (New Jersey, USA) and authorized by the FDA or the European Medicines Agency (EMA) were tested (U.S Food and Drug Administration C for DE and. Food Additive Status List. FDA 2022. U.S Food and Drug Administration C for DE and. Select Committee on GRAS Substances 2022. Committee for Human Medicinal Products. Cyclodextrins used as excipients. EMA 2017:16). These were alpha-CD, beta-[…] (methyl-beta-CD, low substitution degree), RAMEB (methyl-beta-CD, higher substitution degree), DIMEB (di-O-methyl-beta-[…] (tri-O-methyl-beta-CD), HP-beta-CD (Hydroxypropyl-beta-CD), SBE-beta-CD (Sulfobutylether-beta-CD), gamma-CD, HP-gamma-CD (Hydroxypropyl-gamma-CD), SBE-gamma-CD (Sulfobutylether-gamma-CD), and sugammadex (SGM). Vinorelbine ditartrate and 50 mM CD solutions were prepared in phosphate buffer pH 7.0. […] To confirm the validity of the chosen stoichiometric model and to increase the accuracy of the thermodynamic parameters, each system was also subjected to a competition experiment with SGM: a solution of 0.5 mM vinorelbine and 10 mM CD titrated against a mixture containing 5 mM SGM and 10 mM CD. […] For all CDs the measurements were performed at 25° C., and the stirring speed was set at 1000 rpm. The resulting heat flux was recorded as a function of time. Prior to data analysis, blank titrations were performed under the same experimental conditions by injecting individual species into buffer, and/or buffer into species and buffer into buffer to determine the heat of dilution. […] The peak area after each injection was obtained by integration of the resulting signal and was expressed as the heat effect per injection. The binding constant (KB), inclusion enthalpy (ΔbH°), and heat capacity (ΔbCp®) were determined using a program developed by Bertaut and Landy involving a global analysis of all binding isotherms obtained for a given system (Bertaut et al. Beilstein J Org Chem 2014:12). A set of thermodynamic parameters was employed for simultaneous nonlinear regression analyses of titration and competition experiments.

[2] = Simulated complexation of vinorelbine in CD using the constants of Table 2; conditions: for CD concentration needed to obtain 95% of complexation: vinorelbine solution at 20 mg/mL (25.7 mmol/L)
Protocol: To obtain 95% of complexation for a solution at 20 mg/mL (ie 25.7 mmol/L), about 62 mmol/L of SGM or about 71 mmol/L of SBE-beta-CD is needed.
Using the constant values of Table 2, we simulated the complexation of vinorelbine in CD depending on the CD concentration and the final concentration of the vinorelbine solution. To achieve a concentration of 10 mg/mL, approximately 49 mmol/L sugammadex or 58 mmol/L SBE-beta-CD is required to reach 95% of complexation. For 18 mg/mL, approximately 59 mmol/L sugammadex or 68 mmol/L SBE-beta-CD is required to obtain the same complexation rate. […] This indicates a real and strong complexation between vinorelbine and cyclodextrin.

[3] = Haze / precipitate on mixing CD with vinorelbine (2D NMR sample preparation); assay type: physicochemical
Protocol: In order to confirm the type of existing interaction (inclusion complex, type of binding) between CD and vinorelbine, a two-dimensional proton NMR was performed on PA (Spitzer et al, J Heterocycl Chem 1995; 32:1255-9), CDs (Schneider et al, Chem Rev 1998; 98:1755-86) and complexes (Vogt et al, Mol Pharm 2012; 9:3357-74; Péan et al, J Chim Phys Phys-Chim Biol 1999; 96:1486-93). Vinorelbine 10 mM stock solution (SS) was prepared by dissolving 21.58 mg of vinorelbine tartrate in 2 mL of deuterated water. CD stock solutions were prepared by dissolving: 21.78 mg SGM in 1 mL heavy water (SS2), 9.73 mg alpha-CD in ImL heavy water (SS3), 21.63 mg SBE-beta-CD in 1 mL heavy water (SS4), and 20.72 mg SBE-gamma-CD in 1 mL heavy water (SS5). These stock solutions were used for the preparation of 10 samples containing vinorelbine, CDs or a mixture of CDs and vinorelbine in deuterated water as shown in Table 1.
A range of vinorelbine-SGM mixtures was performed from 1.5 mmol/L to 5 mmol/L. The haze appears from the mixture of concentration 2.5 mmol/L (sample 10).

[4] = cited from earlier work
EpiOral = assay type: cell-based; conditions: vinorelbine 20 mg/mL
Protocol: EpiOral were also used for immunohistology analysis as follow: 3 untreated tissues (negative control, NC), 3 tissues in contact with SBE-β-CD, 3 tissues in contact with vinorelbine at 20 mg/mL concentration, 3 tissues in contact with vinorelbine complexed with SBE-β-CD and 3 tissues in contact with 1% Triton X-100 (positive control, PC). Tissues samples were fixed with 4% PFA and embedded in paraffin. Sections (3 μm thick) were deparaffinized and were stained with Hematoxylin and Eosin (H&E). For immunofluorescence, slides were incubated overnight at 4° C. with primary antibodies diluted in 0.02% Triton X-100-PBS. Primary antibodies were as follows: rabbit anti-Ki67 (ab16667; 1/75; Abcam), mouse anti-E-Cadherin (ab1416; 1/100; Abcam), rabbit anti-Claudin 4 (ab210796; 1/200; Abcam), mouse anti-Cytokeratin 10 (ab9026; 1/100; Abcam), rabbit anti-Cytokeratin 13 (ab97327; 1/50; Abcam) and mouse anti-Cytokeratin 14 (ab7800; 1/50; Abcam). For immunofluorescence detection, secondary antibody Alexa Fluor™ plus 488 goat anti-mouse (1:200; Invitrogen A11029), Alexa Fluor™ plus 488 donkey anti-rabbit (1:200; Invitrogen A21206), Alexa Fluor™ plus 594 goat anti-mouse (1:200; Invitrogen A32742) and Alexa Fluor™ plus 594 goat anti-rabbit (1:200; Invitrogen A32740) were used. […]

Compound | Heat variation / interaction with vinorelbine in titration experiments [1] | Binding constant [1] [L/mol] | ΔbH° (inclusion enthalpy) [1] | CD concentration required to reach 95% of complexation ([2]; vinorelbine 10 mg/mL) | CD concentration required to reach 95% of complexation ([2]; vinorelbine 18 mg/mL) | CD concentration needed to obtain 95% of complexation [2] | Haze / precipitate when mixed with vinorelbine [3] | Solubility ([4]; aprotic solvents) | Solubility ([4]; methanol) | Solubility ([4]; water) | Cytotoxicity / TUNEL marking (EpiOral) | E-cadherin marking (tight junctions) (EpiOral; Triton X-100 1%) | Concentration of vinorelbine-CD mixture from which haze appears ([3]; range 1.5 to 5 mmol/L, deuterated water) [mmol/L]
OC[C@H]1O[C@@H]2O[C@H]3[C@H](O)[C@@H](O)[C@@H](O[C@H]4[C@H](O)[C@@H](O)[C@@H](O[C@H]5[C@H](O)[C@@H](O)[C@@H](O[C@H]6[C@H](O)[C@@H](O)[C@@H](O[C@H]7[C@H](O)[C@@H](O)[C@@H](O[C@H]1[C@H](O)[C@H]2O)O[C@@H]7CO)O[C@@H]6CO)O[C@@H]5CO)O[C@@H]4CO)O[C@@H]3CO [Alpha-CD, alpha-cyclodextrin] | small heat variation | 106 | -1185 cal/mol | – | – | – | – | – | – | – | – | – | –
sulfobutylether-beta-cyclodextrin [SBE-beta-CD] | an interaction is observed | 412 | +2305 cal/mol | ~58 mmol/L | ~68 mmol/L | about 71 mmol/L | does not produce any precipitate | – | – | – | – | – | –
CCC1=C[C@@H]2CN(C1)Cc1c([nH]c3ccccc13)[C@@](C(=O)OC)(c1cc3c(cc1OC)N(C)[C@H]1[C@@](O)(C(=O)OC)[C@H](OC(C)=O)[C@]4(CC)C=CCN5CC[C@]31[C@@H]54)C2 [vinorelbine, vinorelbine ditartrate salt hydrate] | – | – | – | – | – | – | – | insoluble | partially soluble | totally soluble | causes cell mortality and destroys tight tissue junctions | loss of E-cadherin marking | –
O=C(O)CCSC[C@H]1O[C@@H]2O[C@H]3[C@H](O)[C@@H](O)[C@@H](O[C@H]4[C@H](O)[C@@H](O)[C@@H](O[C@H]5[C@H](O)[C@@H](O)[C@@H](O[C@H]6[C@H](O)[C@@H](O)[C@@H](O[C@H]7[C@H](O)[C@@H](O)[C@@H](O[C@H]8[C@H](O)[C@@H](O)[C@@H](O[C@H]9[C@H](O)[C@@H](O)[C@@H](O[C@H]1[C@H](O)[C@H]2O)O[C@@H]9CSCCC(=O)O)O[C@@H]8CSCCC(=O)O)O[C@@H]7CSCCC(=O)O)O[C@@H]6CSCCC(=O)O)O[C@@H]5CSCCC(=O)O)O[C@@H]4CSCCC(=O)O)O[C@@H]3CSCCC(=O)O [SGM, sugammadex] | an interaction is observed | 511 | -3177 cal/mol | approximately 49 mmol/L | approximately 59 mmol/L | about 62 mmol/L | a haze appeared | – | – | – | – | – | ≥ 2.5
Sulfobutylether-gamma-CD [SBE-gamma-CD] | an interaction is observed | 121 | +514 cal/mol | – | – | – | – | – | – | – | – | – | –
